Measured values reported in patent US7439380B2, “Diarylbutadiene-substituted diorganopolysiloxanes and photoprotective compositions comprised thereof” (L'Oreal, priority 2003, dated 2008).

Assay: UV absorption spectrum in ethanol
Type: physicochemical
Conditions: for UV E1% / UV εmax: at λmax

Structure (SMILES) | UV λmax [nm] | UV E1% | UV εmax
CCOC(=O)/C(=C\C=C(c1ccccc1)c1ccccc1)C(=O)NCCC[Si](C)(O[Si](C)(C)C)O[Si](C)(C)C [Example 7, ethyl 4,4-diphenyl-1,3-diene-N-[3-[1,3,3,3-tetramethyl-1-[(trimethylsilyl)oxy]disiloxanyl]propyl]-2-(4,4-diphenylprop-2-ethylene)malonamide] | 335 | 542 | 31 650
C[Si](C)(C)O[Si](C)(CCCOC(=O)/C(C#N)=C\C=C(c1ccccc1)c1ccccc1)O[Si](C)(C)C [Example 3, 3-[1,3,3,3-tetramethyl-1-[(trimethylsilyl)oxy]disiloxanyl]propyl 2-cyano-5,5-diphenylpenta-2,4-dienoate] | 358 | 574 | 30 874
C[Si](C)(C)O[Si](C)(CCCNC(=O)/C(C#N)=C/C=C(c1ccccc1)c1ccccc1)O[Si](C)(C)C [Example 5, N-[3-[1,3,3,3-tetramethyl-1-[(trimethylsilyl)oxy]disiloxanyl]propyl]-2-cyano-5,6-diphenylpenta-2,4-dienamide] | 351 | 515 | 27 650
CCOC(=O)/C(=C/C=C(c1ccccc1)c1ccccc1)C(=O)OCC(C)C[Si](C)(O[Si](C)(C)C)O[Si](C)(C)C (stereo not drawn) [Example 1, monoethyl mono-3-[1,3,3,3-tetramethyl-1-[(trimethylsilyl)oxy]disiloxanyl]-2-methylpropyl 2-(3,3-diphenylprop-2-enylene)malonate] | 333 | 660 | 39 530
CC(COC(=O)C(=CC=C(c1ccccc1)c1ccccc1)C(=O)OCC(C)C[Si](C)(O[Si](C)(C)C)O[Si](C)(C)C)C[Si](C)(O[Si](C)(C)C)O[Si](C)(C)C (stereo not drawn) [Example 6] | 330 | 346 | 28 650
